Experimental data as given in ChEMBL document CHEMBL1137870, “Synthesis and evaluation of 2-amino-8-alkoxy quinolines as MCHr1 antagonists. Part 2” (Bioorg Med Chem Lett, 2004).

Key:
[1] = target: T1, Melanin-concentrating hormone receptor 1 (Homo sapiens, UniProt Q99705); experiment: Concentration required to inhibit 50% of melanin-concentrating hormone induced [Ca2+] flux in IMR-32 cells measured by using a fluorometric imaging plate reader; format: functional, cell-based
[2] = target: T1, Melanin-concentrating hormone receptor 1; experiment: Concentration required to inhibit binding of [125I]-MCH radioligand to human Melanin-concentrating hormone receptor 1 in IMR-32 I3.4.2 cell membranes
[3] = Area under curve in plasma was determined at the peroral dose of 10 mg/kg in diet-induced obese (DIO) mice; format: ADME, organism-based; parameters: dose 10 mg/kg, route oral; details: mouse, in vivo, po
[4] = Half life in plasma was determined at the peroral dose of 10 mg/kg in diet-induced obese (DIO) mice; format: ADME, organism-based; parameters: dose 10 mg/kg, route oral; details: mouse, po
[5] = Half life in brain was determined at the peroral dose of 10 mg/kg in diet-induced obese (DIO) mice; format: ADME, organism-based; parameters: dose 10 mg/kg, route oral; details: mouse, po
[6] = Area under curve in brain was determined at the peroral dose of 10 mg/kg in diet-induced obese (DIO) mice; format: ADME, organism-based; parameters: dose 10 mg/kg, route oral; details: mouse, in vivo, po
[7] = Brain/plasma ratio was determined at peroral dose of 10 mg/kg in diet-induced obese (DIO) mice; format: ADME, organism-based; parameters: dose 10 mg/kg, route oral; details: mouse, brain and plasma, po

T1 sequence (Q99705 whole entry): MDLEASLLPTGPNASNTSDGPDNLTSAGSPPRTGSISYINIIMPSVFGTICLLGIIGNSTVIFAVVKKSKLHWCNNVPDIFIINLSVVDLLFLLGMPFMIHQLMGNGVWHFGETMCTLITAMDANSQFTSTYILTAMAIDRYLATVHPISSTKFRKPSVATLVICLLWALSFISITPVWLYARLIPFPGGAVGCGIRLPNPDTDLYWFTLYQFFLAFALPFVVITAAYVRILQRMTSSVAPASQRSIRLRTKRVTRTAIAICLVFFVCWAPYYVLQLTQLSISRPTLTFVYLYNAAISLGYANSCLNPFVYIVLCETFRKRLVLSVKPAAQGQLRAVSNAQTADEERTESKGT

| Compound | IC50 [1] | IC50 [2] | also measured |
| --- | --- | --- | --- |
| Nc1ccc2cccc(OCCCNC(=O)c3cccc(Cl)c3)c2n1 | 3 nM | 0.4 nM | – |
| N#Cc1cccc(C(=O)NCCCOc2cccc3ccc(NCc4ccc(-c5ccc(Cl)cc5)o4)nc23)c1 | 40 nM | 2 nM | – |
| COc1cccc(CNCC(C)Oc2cccc3ccc(N)nc23)c1 (stereo not given) | 600 nM | 1 nM | – |
| CC(CC(C)(C)C)Oc1cccc2ccc(N)nc12 (stereo not given) | – | 50 nM | – |
| Nc1ccc2cccc(OCCCNC(=O)Nc3ccc4c(c3)OCO4)c2n1 | 110 nM | 5 nM | – |
| CC(CNCc1ccccc1)Oc1cccc2ccc(N)nc12 (stereo not given) | 340 nM | 100 nM | – |
| Nc1ccc2cccc(OCCCNC(=O)c3ccc4c(c3)OCO4)c2n1 | 70 nM | 7 nM | – |
| COc1cccc(C(=O)NCCCOc2cccc3ccc(N)nc23)c1 | 30 nM | 2 nM | – |
| Nc1ccc2cccc(OCCCNC(=O)Nc3cccc(Cl)c3)c2n1 | 8 nM | 0.9 nM | – |
| CC(CN1CCCCC1)Oc1cccc2ccc(N)nc12 (stereo not given) | 290 nM | 40 nM | – |
| N#Cc1cccc(C(=O)NCCCOc2cccc3ccc(N)nc23)c1 | 7 nM | 3 nM | AUC [3]: 328 ng·h/mL; half-life [4]: 1.4 h; half-life [5]: 1.6 h; AUC [6]: 11 ng·h/mL; Kp [7]: 0.03 |
| CC(CNC1CC1)Oc1cccc2ccc(N)nc12 (stereo not given) | 580 nM | 50 nM | – |
| CC(CNC1CCCC1)Oc1cccc2ccc(N)nc12 (stereo not given) | 30 nM | 30 nM | – |
| CC(CN1CCOCC1)Oc1cccc2ccc(N)nc12 (stereo not given) | 190 nM | 80 nM | – |
| CC(CN1CCCC1)Oc1cccc2ccc(N)nc12 (stereo not given) | 360 nM | 70 nM | – |
| CC(C)c1ccc(CNCCCOc2cccc3ccc(N)nc23)cc1 | 630 nM | 10 nM | – |
| CC(CNCc1ccsc1)Oc1cccc2ccc(N)nc12 (stereo not given) | 150 nM | 10 nM | – |
| CC(CNCc1ccc2c(c1)OCO2)Oc1cccc2ccc(N)nc12 (stereo not given) | 130 nM | 30 nM | – |

| Compound | IC50 [1] | IC50 [2] | also measured |
| --- | --- | --- | --- |
| Nc1ccc2cccc(OCCCNc3ccc4c(c3)OC(F)(F)O4)c2n1 | 100 nM | 1 nM | – |
| Nc1ccc2cccc(OCCCNc3ccc4c(c3)OCO4)c2n1 | 270 nM | 10 nM | – |
| CC(C)c1ccc(C(=O)NCCCOc2cccc3ccc(N)nc23)cc1 | 140 nM | 60 nM | – |
| CC(CNCc1ccoc1)Oc1cccc2ccc(N)nc12 (stereo not given) | 100 nM | 10 nM | – |
| O=C(NCCCOc1cccc2ccc(NCc3ccc(-c4ccccc4Cl)o3)nc12)Nc1ccc2c(c1)OCO2 | 3110 nM | 50 nM | – |
| Nc1ccc2cccc(OCCNCc3ccc4c(c3)OCO4)c2n1 | 8960 nM | 520 nM | – |
| O=C(NCCCOc1cccc2ccc(NCc3ccc(-c4ccccc4Cl)o3)nc12)c1cccc(Cl)c1 | 20 nM | 1 nM | – |
| Nc1ccc2cccc(OCCNCc3ccoc3)c2n1 | > 10000 nM | 660 nM | – |
| N#Cc1cccc(C(=O)NCCCOc2cccc3ccc(NCc4ccc(-c5cccc(Cl)c5)o4)nc23)c1 | 10 nM | 5 nM | – |
| Nc1ccc2cccc(OCCCNCc3ccc(Cl)c(C(F)(F)F)c3)c2n1 | 220 nM | 5 nM | AUC [3]: 9960 ng·h/mL; half-life [4]: 8.9 h; AUC [6]: 9520 ng·h/mL; Kp [7]: 0.96 |
| CCCNc1ccc2cccc(OCCCNC(=O)c3cccc(Cl)c3)c2n1 | 1120 nM | 10 nM | – |
| CC(CNc1ccc2[nH]ncc2c1)Oc1cccc2ccc(N)nc12 (stereo not given) | 8180 nM | 530 nM | – |
| Nc1ccc2cccc(OCCCNC(=O)c3cccc(OC(F)(F)F)c3)c2n1 | 20 nM | 6 nM | AUC [3]: 424 ng·h/mL; half-life [4]: 1.2 h; half-life [5]: 0.6 h; AUC [6]: 68 ng·h/mL; Kp [7]: 0.2 |
| CC(CNC1CCCCC1)Oc1cccc2ccc(N)nc12 (stereo not given) | 2170 nM | 210 nM | – |
| CC(CNCC1CC1)Oc1cccc2ccc(N)nc12 (stereo not given) | 460 nM | 80 nM | – |
| CC(CNCC1CCCC1)Oc1cccc2ccc(N)nc12 (stereo not given) | 100 nM | 100 nM | – |
| CN(C)CC1CCc2cc(NC(=O)c3ccc(-c4ccc(F)cc4)cc3)ccc2C1 (single isomer, unassigned; (-)) | 872 nM | 85 nM | – |
| COCC1=C(C(=O)OC)[C@H](c2ccc(F)c(F)c2)N(C(=O)NCCCN2CCC(c3cccc(NC(C)=O)c3)CC2)C(=O)N1 [SNAP-7941] | 15 nM | 3 nM | – |
